Data: patent US20230357320A1, “HELICAL STAPLED PEPTIDES AND USES THEREOF” (FOG PHARMACEUTICALS, INC., priority 2020, published 2023)
Read-outs that look alike come from different tables or passages of the source. Starred links: 1 amine or outer side, 2 acyl side, 3 side chain; linkers in the order of their positions; H or OH if unused. Positions of bridges follow the written chain, without caps; N, C: chain ends. Non-standard residues stand in square brackets, D forms with d. Residues, ends and D or L forms follow the SMILES beside them. X1 = O=C([C@]1(CC=[*:3])CCCN1[*:1])[*:2]; Ala(cPr) = N[C@@H](CC1CC1)C(=O)O; S5 = C=CCCC[C@](C)(N)C(=O)O; Nle = CCCC[C@H](N)C(=O)O

Key:
ERβ LBD = target: T1, ERβ LBD (Homo sapiens, UniProt Q92731); assay: Competition fluorescence polarization (FP) binding assay with FITC-ERL4 probe; conditions: read-out: EC50
T1 construct: pET28a+ vector containing ERβ LBD (residues from 261 to 500) along with an N-terminal His6-yBBr-TEV tag; His6 (N); yBBr (N); TEV cleavage site (N); made in house; host or cells: E. coli BL21(DE3) pLysS
Experimental: In addition to the PAMPA assay, to study the affinity of the first-generation ProLock™ stapled peptides to the Estrogen receptor p ligand-binding domain (ERβ LBD), a fluorescence polarization (FP) binding assay in competition format was used in the presence of the endogenous ERβ LBD ligand estradiol. Competition Fluorescence Polarization (FP) assay was performed on the peptides to determine their half-maximal effective concentration (EC50). To do this, FITC labeled ERL4 peptide (FITC-βAla-His-Pro-Leu-Leu-Nle-Arg-Leu-Leu-Leu-Ser-Pro-CONH2) was synthesized to be used as a fluorescence probe based on existing literature (Fuchs et al., Journal of the American Chemical Society 2013, 135 (11), 4364-4371). Direct FP was performed in black 384-well plates (Corning). The final volume of each assay well was 40 μL with constant concentration of FITC labeled ERL4 peptide (10 nM) and variable concentrations of ERβ LBD protein.
ERβ LBD expression and purification was performed as follows. BL21(DE3) pLysS E. coli cells were transformed with a pET28a+ vector containing ERβ LBD (residues from 261 to 500) along with an N-terminal His6-yBBr-TEV tag. An overnight culture in 10 mL of TB media containing 50 μg/mL kanamycin was prepared from a single bacterial colony. The overnight culture was subsequently added to 1 liter of autoclaved TB media containing 50 μg/mL kanamycin and shaken at 37° C. until an OD of 0.6-0.8 was reached. IPTG was added to the culture and left shaking for 6 hours. Bacterial culture was pelleted and resuspended in lysis buffer. Resuspended bacterial culture was incubated at 0° C. for 10 minutes before sonication at 65% amplitude with 10-sec cycles using a Branson Sonifier. The lysate was then cleared by centrifugation at 8000×g for 20 min. […] The expected molecular weight of the ERβ LBD protein is 30.8 KDa, which molecular weight was confirmed by SDS PAGE analysis. Purified ERβ LBD was concentrated to 90 μM and was stored at −80° C. buffer.
Competition FP assays were also employed. These were performed in black 384-well plates (Corning). The final volume of each assay well was 80 μL containing constant concentrations of estradiol (1 μM) and FITC labeled ERL4 (10 nM). The ERβ LBD concentration was held constant (200 nM) while varying the concentration of ProLock stapled peptides (3-fold dilution from 10 μM). Upon addition of samples to each well, the plate was centrifuged for 10 seconds at 3000 rpm and incubated at 4° C. for 1 hour. FP measurements were performed at room temperature with excitation and emission wavelengths at 485 and 535 nm using a Clariostar microplate reader (BMG Labtech). Each plate had high and low polarization samples, which are used to normalize the assay data. The competition FP results were analyzed by Prism 7 (GraphPad). The non-linear regression analysis of the data was used to determine the half-maximal effective concentration (EC50) of ProLock stapled peptides. […] The normalized FP values shown in FIG. 6 are mean±S.E.M of at least four independent replicates.

[1] = for % Retention: PAMPA
Experimental: (§1) The synthesized peptides were first analyzed with a PAMPA assay. […] The PAMPA plate system is composed of two compartments, donor and acceptor, which are separated by a phospholipid-infused membrane. The amount of compound transferred from the acceptor well into the donor well over a period of incubation time is used to determine the passive permeability of a compound.
(§2) The two plates are separated by a membrane infused with phospholipids. […] The amount of compound transferred from one well to the other is usually quantified by reverse-phase HPLC-mass spectrometry.
(§3) Briefly, all PAMPA assays were performed using the commercially available PAMPA plate system from Corning, which uses a proprietary membrane composed of structured phospholipids. […] To prevent nonspecific peptide loss to the plates, the acceptor wells of the Corning PAMPA plates were blocked overnight with 5% nonfat milk with 0.1% Triton X-100 in Dulbecco's phosphate buffer saline (DPBS) at pH=7.4, followed by extensive washing prior to assays. The donor wells and membrane itself were not exposed to the milk/Triton solution. […] The PAMPA experiments described herein were performed using plates from Corning Lot #9112010, Lot #9112011 and Lot #7317005 (Corning Inc., Corning, New York, USA).
(§4) To set up PAMPA assays, the PAMPA plate system was equilibrated at room temperature for at least an hour before setting up the assay. The acceptor plate preincubated with milk blocking solution was washed with water, followed by DPBS buffer. 300 μL of 5% DMSO in DPBS at pH=7.4 was added to the pre-blocked acceptor plate, and 200 μL of 10M compounds made with 5% DMSO in DPBS at pH=7.4 was added to the donor plate. The donor plate with a lid was then carefully inserted into the acceptor plate with no bubbles formed at the interface of donor and acceptor plates. The PAMPA assay plate was covered with aluminum foil and placed in a 37° C. incubator for 5 hours. 10 M input solution of all compounds was diluted 20-fold to a final acetonitrile concentration of 50% before analyzing by reverse-phase HPLC and Q-Exactive plus mass spectrometer. At the end of 5 hours, PAMPA donor and acceptor plates were separated and diluted 20-fold and 2-fold respectively to a final acetonitrile concentration of 50%. The diluted solutions of PAMPA donor and acceptor plates were analyzed by reverse-phase HPLC and Q-Exactive plus mass spectrometer.
(§5) Pe measures the passive permeability of each compound tested in the PAMPA assay, whereas % retention measures the amount of compound retained in solution at the end of the assay compared to the input sample.

in vitro = assay: in vitro; parameters: dose or concentration left out as unconfirmed; conditions: PAMPA, pH 7.4, PAMPA Pe
Experimental: as §1, §2, §3, §4, §5

[2] = CHI Log D measurement (chromatographic hydrophobicity index); conditions: pH 7.4
Experimental: Finally, to measure hydrophobicity, a CHI Log D measurement assay was employed. […] The retention time measurements were performed using reverse-phase HPLC and Q-Exactive mass spectrometer with Phenomenex Gemini C-18 column (3 uM, 50×3 mm). The reverse-phase chromatography was performed using a gradient of 10 mM ammonium acetate at pH=7.4 and acetonitrile solvents. Using the identical solvent setup, gradient, and flowrate, ProLock stapled peptides were injected onto the column to determine the tR of peptides. Using the calibration curve shown in FIG. 7, tR is converted into CHI. CHI was converted into CHI Log D using the following equation.

[3] = Table 4, binding to ER LBD, estradiol 1 μM, FITC-ERL4 10 nM, ERβ LBD 200 nM, mean ± S.E.M, at least four replicates
[4] = reverse-phase HPLC, Phenomenex Gemini C-18 column
[5] = Table 2, binding to ER LBD, estradiol 1 μM, FITC-ERL4 10 nM, ERβ LBD 200 nM, mean ± S.E.M, at least four replicates
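Wherever % Retention is given: Phospholipid-membrane PAMPA, donor and acceptor in DPBS pH 7.4 with 5% DMSO, 37 °C for 5 h, compound in each well quantified by reverse-phase HPLC-MS.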
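Wherever PAMPA Pe (text) is given: Phospholipid-membrane PAMPA, donor and acceptor in DPBS pH 7.4 with 5% DMSO, 37 °C for 5 h, compound in each well quantified by reverse-phase HPLC-MS.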
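Wherever PAMPA Pe is given: Phospholipid-membrane PAMPA, donor and acceptor in DPBS pH 7.4 with 5% DMSO, 37 °C for 5 h, compound in each well quantified by reverse-phase HPLC-MS.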
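Wherever Papp is given: Phospholipid-membrane PAMPA, donor and acceptor in DPBS pH 7.4 with 5% DMSO, 37 °C for 5 h, compound in each well quantified by reverse-phase HPLC-MS.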

SMILES	EC50 (ERβ LBD; [3]) [µM]	% Retention [1] [%]	Papp at 5 h (in vitro) [×10⁻⁶ cm/s]	chromatographic logD [2, 4]	chromatographic logD [2]	PAMPA Pe [1]	EC50 (ERβ LBD; binding towards the ERβ LBD) [µM]	EC50 (ERβ LBD; [5]) [µM]	PAMPA Pe (text) [1]
CNC(=O)[C@H](CC(=O)O)NC(=O)[C@H](CC(C)C)NC(=O)[C@H](CC(C)C)NC(=O)[C@H](CCCNC(=N)N)NC(=O)[C@]1(C)CCCC=CC[C@]2(CCCN2C(C)=O)C(=O)N[C@@H](CC(C)C)C(=O)N[C@@H](CC(C)C)C(=O)N1 [PLL5-8, Ac-PL3-Leu-Leu-S5-Arg-Leu-Leu-Asp-NHMe] (Ac-[X1]LL[S5]RLLD-NHMe; staple 1-4)	7.9 ± 0.4	104 ± 3	0.9 ± 0.2	2.1					
CNC(=O)[C@H](CC(=O)O)NC(=O)[C@H](CC(C)C)NC(=O)[C@H](CC(C)C)NC(=O)[C@H](Cc1ccc(O)cc1)NC(=O)[C@]1(C)CCCC=CC[C@]2(CCCN2C(C)=O)C(=O)N[C@@H]([C@@H](C)O)C(=O)N[C@@H](CC(C)C)C(=O)N1 (single isomer, unassigned) [PLL5-5, Ac-PL3-Thr-Leu-S5-Tyr-Leu-Leu-Asp-NHMe]	> 10	101 ± 5	1.4 ± 0.2		1.4				
CNC(=O)[C@@H](NC(=O)[C@H](CC(C)C)NC(=O)[C@H](CC(C)C)NC(=O)[C@H](Cc1ccc(O)cc1)NC(=O)[C@]1(C)CCCC=CC[C@]2(CCCN2C(C)=O)C(=O)N[C@@H](CC(C)C)C(=O)N[C@@H](CC(C)C)C(=O)N1)[C@@H](C)O [PLL5-10, Ac-PL3-Leu-Leu-S5-Tyr-Leu-Leu-Thr-NHMe] (Ac-[X1]LL[S5]YLLT-NHMe; staple 1-4)	1.5 ± 0.2	34 ± 0	≤ 0.1	3.8					
CNC(=O)[C@H](CC(=O)O)NC(=O)[C@H](CC(C)C)NC(=O)[C@H](CC(C)C)NC(=O)[C@H](Cc1ccc(O)cc1)NC(=O)[C@]1(C)CCCC=CC[C@]2(CCCN2C(C)=O)C(=O)N[C@@H](CCCCN)C(=O)N[C@@H](CC(C)C)C(=O)N1 (single isomer, unassigned) [PLL5-6, Ac-PL3-Lys-Leu-S5-Tyr-Leu-Leu-Asp-NHMe]	> 10	105 ± 5	1.5 ± 0.2		1.2				
CNC(=O)[C@H](CC(N)=O)NC(=O)[C@H](CC(C)C)NC(=O)[C@H](CC(C)C)NC(=O)[C@H](Cc1c[nH]cn1)NC(=O)[C@]1(C)CCCC=CC[C@]2(CCCN2C(C)=O)C(=O)N[C@@H](C)C(=O)N[C@@H](CC(C)C)C(=O)N1 (single isomer, unassigned) [PLL7-20, Ac-PL3-Ala-Leu-S5-His-Leu-Leu-Asn-NHMe]	> 10	104 ± 2	1.3 ± 0.1		2.1	1.3 ± 0.1 (×10^−6) cm/sec			
CNC(=O)[C@H](CC(=O)O)NC(=O)[C@H](CC(=O)O)NC(=O)[C@H](CC(C)C)NC(=O)[C@H](CC(C)C)NC(=O)[C@H](Cc1ccc(O)cc1)NC(=O)[C@]1(C)CCCC=CC[C@]2(CCCN2C(C)=O)C(=O)N[C@@H](CC(C)C)C(=O)N[C@@H](CC(C)C)C(=O)N1 [PLL5-2, Ac-PL3-Leu-Leu-S5-Tyr-Leu-Leu-Asp-Asp-NHMe] (Ac-[X1]LL[S5]YLLDD-NHMe; staple 1-4)		97 ± 2	1.6 ± 0.1	1.7		1.6 ± 0.1 (×10^−6) cm/sec	0.8 to 1.3		
CNC(=O)[C@H](CC(=O)O)NC(=O)[C@H](CCC(N)=O)NC(=O)[C@H](CC(C)C)NC(=O)[C@H](CC(C)C)NC(=O)[C@H](Cc1ccc(O)cc1)NC(=O)[C@]1(C)CCCC=CC[C@]2(CCCN2C(C)=O)C(=O)N[C@@H](C)C(=O)N[C@@H](CC(C)C)C(=O)N1 (single isomer, unassigned) [PLL7-8, Ac-PL3-Ala-Leu-S5-Tyr-Leu-Leu-Gln-Asp-NHMe]	> 10	107 ± 3	1.4 ± 0.3		1.7				
CNC(=O)[C@H](CC(=O)O)NC(=O)[C@H](CC(C)C)NC(=O)[C@H](CC(C)C)NC(=O)[C@H](Cc1ccc(O)cc1)NC(=O)[C@H](CCCNC(=N)N)NC(=O)[C@]1(C)CCCC=CC[C@]2(CCCN2C(C)=O)C(=O)N[C@@H](C)C(=O)N[C@@H](CC(C)C)C(=O)N1 [PLL4-4, Ac-PL3-Ala-Leu-S5-Arg-Tyr-Leu-Leu-Asp-NHMe] (Ac-[X1]AL[S5]RYLLD-NHMe; staple 1-4)		71 ± 2	0.5 ± 0.1	2.3				7.9 ± 0.4	0.3-0.7 ×10^−6 cm/sec
CC[C@H](C)[C@@H]1NC(=O)[C@]2(CC=CCCC[C@@](C)(C(=O)N[C@@H](Cc3ccc(O)cc3)C(=O)N[C@@H](CC(C)C)C(=O)N[C@@H](CC(C)C)C(=O)N[C@@H](CC(=O)O)C(=O)NC)NC(=O)[C@H](CC(C)C)NC1=O)CCCN2C(C)=O [PLL5-4, Ac-PL3-Ile-Leu-S5-Tyr-Leu-Leu-Asp-NHMe] (Ac-[X1]IL[S5]YLLD-NHMe; staple 1-4)	1.3 ± 0.1	100 ± 1	0.3 ± 0.1	2.4					
CNC(=O)[C@H](CC(=O)O)NC(=O)[C@H](CCC(N)=O)NC(=O)[C@H](CC(C)C)NC(=O)[C@H](CC(C)C)NC(=O)[C@H](CCCNC(=N)N)NC(=O)[C@]1(C)CCCC=CC[C@]2(CCCN2C(C)=O)C(=O)N[C@@H](CC2CC2)C(=O)N[C@@H](CC(C)C)C(=O)N1 [PLL7-5, Ac-PL3-Cpa-Leu-S5-Arg-Leu-Leu-Gln-Asp-NHMe] (Ac-[X1][Ala(cPr)]L[S5]RLLQD-NHMe; staple 1-4)	4.1 ± 0.3	109 ± 2	0.8 ± 0.2	2					
CCCC[C@H](NC(=O)[C@]1(C)CCCC=CC[C@]2(CCCN2C(C)=O)C(=O)N[C@@H](CC(C)C)C(=O)N[C@@H](CCCNC(=N)N)C(=O)N1)C(=O)N[C@@H](CC(C)C)C(=O)N[C@@H](C)C(=O)N[C@@H](Cc1ccc(O)cc1)C(=O)NC [PLL4-12, Ac-PL3-Leu-Arg-S5-Nle-Leu-Ala-Tyr-NHMe] (Ac-[X1]LR[S5][Nle]LAY-NHMe; staple 1-4)		42 ± 2	≤ 0.1	2.7				7.5 ± 0.4	
CNC(=O)[C@H](CC(=O)O)NC(=O)[C@H](CC(=O)O)NC(=O)[C@H](CC(C)C)NC(=O)[C@H](CC(C)C)NC(=O)[C@H](Cc1ccc(O)cc1)NC(=O)[C@]1(C)CCCC=CC[C@]2(CCCN2C(C)=O)C(=O)N[C@@H]([C@@H](C)O)C(=O)N[C@@H](CC(C)C)C(=O)N1 (single isomer, unassigned) [PLL7-1, Ac-PL3-Thr-Leu-S5-Tyr-Leu-Leu-Asp-Asp-NHMe]	> 10	114 ± 3	2.1 ± 0.4		1				2.1e-06 cm/s
CNC(=O)[C@H](Cc1c[nH]cn1)NC(=O)[C@H](CC(C)C)NC(=O)[C@H](CC(C)C)NC(=O)[C@H](Cc1ccc(O)cc1)NC(=O)[C@]1(C)CCCC=CC[C@]2(CCCN2C(C)=O)C(=O)N[C@@H](CC(C)C)C(=O)N[C@@H](CC(C)C)C(=O)N1 (single isomer, unassigned) [PLL5-11, Ac-PL3-Leu-Leu-S5-Tyr-Leu-Leu-His-NHMe]	> 10	89 ± 1	≤ 0.1		3.2				
